{"source": "patent US5126265A", "about": "“AB-021 antibiotics and process for producing them” (Presidenza del Consiglio dei Ministri-Ufficio del Ministro …, priority 1988, dated 1992)", "data": [{"tested_on": "Streptomyces sp. NCIB 40068", "assay": "Resistance of the producing strain (Table B)", "assay_type": "cell-based", "conditions": "producing strain Streptomyces sp. NCIB 40068", "units": {"Resistance to (antimicrobial)": "ppm"}, "values": [{"molecule": "Lysozyme", "Resistance to (antimicrobial)": 10}, {"molecule": "CO[C@H]1/C=C/O[C@@]2(C)Oc3c(C)c(O)c4c(O)c(c(/C=N/N5CCN(C)CC5)c(O)c4c3C2=O)NC(=O)/C(C)=C\\C=C\\[C@H](C)[C@H](O)[C@@H](C)[C@@H](O)[C@@H](C)[C@H](OC(C)=O)[C@@H]1C", "note": "[Rifampicin]", "Resistance to (antimicrobial)": 2}, {"molecule": "CN(C)C1C(=O)C(C(N)=O)=C(O)C2(O)C(=O)C3=C(O)c4c(O)cccc4C(C)(O)C3C(O)C12", "note": "(stereo not drawn) [Oxytetracycline]", "Resistance to (antimicrobial)": 8}]}]}
